Data reported in the kinase profiling compilation of Christmann-Franck et al. (2016).
“And” between values parts separate entries of the source, which are not always exact repeats. Equal entries are not always repeated. Each block holds one compound with its values, some of them ahead of it.

Columns and labels:
Experiment in all cases: radiometric filter-binding kinase assay, Kinase HotSpot
Conditions in all cases: compound 0.5 µM; ATP 10 µM
[1] = molecular target: STK4 (human) (UniProt Q13043)
[2] = molecular target: CDK2 CCNA2 (human) (UniProt P24941+P20248)
[3] = molecular target: SRPK1 (human) (UniProt Q96SB4)
[4] = molecular target: GSG2 (human) (UniProt Q8TF76)
[5] = molecular target: PRKG2 (human) (UniProt Q13237)
[6] = molecular target: RPS6KA6 KD1 KD2 (human) (UniProt Q9UK32)
[7] = molecular target: LYN (human) (UniProt P07948)
[8] = molecular target: PIM1 (human) (UniProt P11309)
[9] = molecular target: HCK (human) (UniProt P08631)
[10] = molecular target: PAK4 (human) (UniProt O96013)
[11] = molecular target: AKT1 (human) (UniProt P31749)
[12] = molecular target: CDK4 CCND1 (human) (UniProt P24385+P11802)
[13] = molecular target: CAMKK2 (human) (UniProt Q96RR4)
[14] = molecular target: STK39 (human) (UniProt Q9UEW8)
[15] = molecular target: CSNK1E (human) (UniProt P49674)
[16] = molecular target: EPHA4 (human) (UniProt P54764)
[17] = molecular target: NTRK3 (human) (UniProt Q16288)
[18] = molecular target: CDK6 CCND1 (human) (UniProt Q00534+P24385)
[19] = molecular target: FRK (human) (UniProt P42685)
[20] = molecular target: FES (human) (UniProt P07332)
[21] = molecular target: EPHA8 (human) (UniProt P29322)
[22] = molecular target: STK11 (human) (UniProt Q15831)
[23] = molecular target: RPS6KA3 KD1 KD2 (human) (UniProt P51812)
[24] = molecular target: MLTK (human) (UniProt Q9NYL2)
[25] = molecular target: PRKCG (human) (UniProt P05129)
[26] = molecular target: MST4 (human) (UniProt Q9P289)
[27] = molecular target: ADRBK1 (human) (UniProt P25098)
[28] = molecular target: CDK9 CCNK (human) (UniProt O75909+P50750)
[29] = molecular target: PTK2B (human) (UniProt Q14289)
[30] = molecular target: MAP4K2 (human) (UniProt Q12851)
[31] = molecular target: PRKCI (human) (UniProt P41743)
[32] = molecular target: TXK (human) (UniProt P42681)
[33] = molecular target: LRRK2 (human) (UniProt Q5S007)
[34] = molecular target: EPHA2 (human) (UniProt P29317)
[35] = molecular target: SRPK2 (human) (UniProt P78362)
[36] = molecular target: BTK (human) (UniProt Q06187)
[37] = molecular target: IRAK4 (human) (UniProt Q9NWZ3)
[38] = molecular target: ULK3 (human) (UniProt Q6PHR2)
[39] = molecular target: SRMS (human) (UniProt Q9H3Y6)
[40] = molecular target: CDK1 CCNB1 (human) (UniProt P06493+P14635)
[41] = molecular target: SRPK3 (human) (UniProt Q9UPE1)

Sequence of CSNK1E (human) (P49674 whole entry, looked up): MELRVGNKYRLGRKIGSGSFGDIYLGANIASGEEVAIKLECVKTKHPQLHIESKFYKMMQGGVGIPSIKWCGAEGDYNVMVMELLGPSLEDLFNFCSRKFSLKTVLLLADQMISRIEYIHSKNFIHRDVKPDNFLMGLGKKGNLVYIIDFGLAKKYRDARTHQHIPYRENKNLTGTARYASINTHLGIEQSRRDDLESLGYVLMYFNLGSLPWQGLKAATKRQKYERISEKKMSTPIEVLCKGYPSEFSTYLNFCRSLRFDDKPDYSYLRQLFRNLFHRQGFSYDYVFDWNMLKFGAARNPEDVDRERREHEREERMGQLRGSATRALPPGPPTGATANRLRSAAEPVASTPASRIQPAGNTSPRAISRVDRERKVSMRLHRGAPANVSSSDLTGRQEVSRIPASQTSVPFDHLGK
Sequence of PIM1 (human) (P11309 whole entry, looked up): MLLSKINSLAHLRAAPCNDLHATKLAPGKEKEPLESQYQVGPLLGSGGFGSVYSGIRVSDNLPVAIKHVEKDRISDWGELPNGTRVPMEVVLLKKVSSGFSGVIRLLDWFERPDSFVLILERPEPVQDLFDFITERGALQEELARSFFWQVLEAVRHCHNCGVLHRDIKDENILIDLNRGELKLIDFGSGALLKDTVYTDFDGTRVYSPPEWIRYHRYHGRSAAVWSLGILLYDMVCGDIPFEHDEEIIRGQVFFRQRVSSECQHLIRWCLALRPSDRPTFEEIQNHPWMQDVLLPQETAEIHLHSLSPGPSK
Sequence of IRAK4 (human) (Q9NWZ3 whole entry, looked up): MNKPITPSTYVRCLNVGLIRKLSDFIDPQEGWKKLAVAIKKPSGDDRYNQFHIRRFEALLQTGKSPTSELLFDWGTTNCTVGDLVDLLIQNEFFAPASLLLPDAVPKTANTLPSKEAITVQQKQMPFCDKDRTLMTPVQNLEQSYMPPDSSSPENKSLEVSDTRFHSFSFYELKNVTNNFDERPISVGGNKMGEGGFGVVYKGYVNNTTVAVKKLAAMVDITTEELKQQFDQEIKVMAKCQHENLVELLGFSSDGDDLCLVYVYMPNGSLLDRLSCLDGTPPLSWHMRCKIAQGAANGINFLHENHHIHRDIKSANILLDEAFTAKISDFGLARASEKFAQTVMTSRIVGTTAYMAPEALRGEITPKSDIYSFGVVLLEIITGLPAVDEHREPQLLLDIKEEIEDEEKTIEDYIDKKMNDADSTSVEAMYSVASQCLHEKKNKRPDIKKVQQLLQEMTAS
Sequence of PRKCI (human) (P41743 whole entry, looked up): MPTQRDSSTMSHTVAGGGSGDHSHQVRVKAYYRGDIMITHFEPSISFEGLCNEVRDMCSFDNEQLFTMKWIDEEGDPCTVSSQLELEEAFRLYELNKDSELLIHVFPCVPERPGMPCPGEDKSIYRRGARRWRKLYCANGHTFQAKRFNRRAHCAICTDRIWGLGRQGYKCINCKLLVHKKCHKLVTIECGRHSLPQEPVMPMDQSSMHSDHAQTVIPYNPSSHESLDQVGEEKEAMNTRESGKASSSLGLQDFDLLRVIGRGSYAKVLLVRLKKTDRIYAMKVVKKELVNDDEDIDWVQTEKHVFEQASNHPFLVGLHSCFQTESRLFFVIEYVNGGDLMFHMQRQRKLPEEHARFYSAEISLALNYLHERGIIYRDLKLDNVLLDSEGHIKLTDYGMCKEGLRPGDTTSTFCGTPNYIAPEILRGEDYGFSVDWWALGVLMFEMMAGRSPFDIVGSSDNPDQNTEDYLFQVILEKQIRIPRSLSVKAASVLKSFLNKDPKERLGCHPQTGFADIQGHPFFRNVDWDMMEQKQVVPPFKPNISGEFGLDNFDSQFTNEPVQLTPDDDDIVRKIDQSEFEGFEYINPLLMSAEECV
Sequence of EPHA2 (human) (P29317 whole entry, looked up): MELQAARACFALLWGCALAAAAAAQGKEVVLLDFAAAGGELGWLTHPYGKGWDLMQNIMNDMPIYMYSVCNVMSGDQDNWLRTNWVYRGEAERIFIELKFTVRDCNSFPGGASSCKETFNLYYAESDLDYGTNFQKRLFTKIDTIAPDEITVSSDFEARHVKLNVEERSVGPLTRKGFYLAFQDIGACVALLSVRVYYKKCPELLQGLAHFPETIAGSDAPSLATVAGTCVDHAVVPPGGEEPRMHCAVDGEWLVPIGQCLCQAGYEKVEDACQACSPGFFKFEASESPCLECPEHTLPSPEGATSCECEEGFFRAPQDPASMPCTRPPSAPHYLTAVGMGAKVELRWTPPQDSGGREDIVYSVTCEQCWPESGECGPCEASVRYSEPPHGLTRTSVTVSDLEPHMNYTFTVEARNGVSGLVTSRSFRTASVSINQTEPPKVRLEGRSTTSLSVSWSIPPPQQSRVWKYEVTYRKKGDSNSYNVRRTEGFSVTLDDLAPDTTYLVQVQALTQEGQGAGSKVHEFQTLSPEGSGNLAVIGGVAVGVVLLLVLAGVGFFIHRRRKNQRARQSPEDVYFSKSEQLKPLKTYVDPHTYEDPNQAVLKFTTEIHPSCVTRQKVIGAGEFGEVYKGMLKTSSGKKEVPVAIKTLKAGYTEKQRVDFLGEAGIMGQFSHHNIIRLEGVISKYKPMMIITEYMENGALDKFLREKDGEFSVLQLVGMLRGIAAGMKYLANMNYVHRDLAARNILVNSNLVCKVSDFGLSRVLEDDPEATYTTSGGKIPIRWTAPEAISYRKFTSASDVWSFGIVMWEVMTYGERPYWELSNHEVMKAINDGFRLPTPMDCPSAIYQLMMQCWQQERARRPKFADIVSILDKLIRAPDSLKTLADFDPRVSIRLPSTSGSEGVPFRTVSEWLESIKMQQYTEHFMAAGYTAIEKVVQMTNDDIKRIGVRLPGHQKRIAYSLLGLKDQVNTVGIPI
Sequence of CDK6 CCND1 (human) (P24385 whole entry, looked up): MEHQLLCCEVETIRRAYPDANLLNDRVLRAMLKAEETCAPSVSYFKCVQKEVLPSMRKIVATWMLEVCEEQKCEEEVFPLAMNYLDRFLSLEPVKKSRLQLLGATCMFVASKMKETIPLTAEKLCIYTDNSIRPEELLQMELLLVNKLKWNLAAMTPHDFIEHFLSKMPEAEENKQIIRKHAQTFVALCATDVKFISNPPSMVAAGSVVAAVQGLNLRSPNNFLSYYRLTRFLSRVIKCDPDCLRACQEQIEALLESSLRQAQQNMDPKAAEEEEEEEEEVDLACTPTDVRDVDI
Sequence of CDK6 CCND1 (human) (Q00534 whole entry, looked up): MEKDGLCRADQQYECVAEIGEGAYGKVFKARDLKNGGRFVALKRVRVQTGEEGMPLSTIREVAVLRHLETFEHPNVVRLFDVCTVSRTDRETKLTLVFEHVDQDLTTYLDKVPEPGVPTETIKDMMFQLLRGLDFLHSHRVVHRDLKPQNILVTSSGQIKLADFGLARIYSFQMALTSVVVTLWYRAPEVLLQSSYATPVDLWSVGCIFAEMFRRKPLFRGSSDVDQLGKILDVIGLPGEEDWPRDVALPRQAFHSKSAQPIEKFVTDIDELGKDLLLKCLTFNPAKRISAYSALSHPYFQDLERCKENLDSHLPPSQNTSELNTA
Sequence of STK4 (human) (Q13043 whole entry, looked up): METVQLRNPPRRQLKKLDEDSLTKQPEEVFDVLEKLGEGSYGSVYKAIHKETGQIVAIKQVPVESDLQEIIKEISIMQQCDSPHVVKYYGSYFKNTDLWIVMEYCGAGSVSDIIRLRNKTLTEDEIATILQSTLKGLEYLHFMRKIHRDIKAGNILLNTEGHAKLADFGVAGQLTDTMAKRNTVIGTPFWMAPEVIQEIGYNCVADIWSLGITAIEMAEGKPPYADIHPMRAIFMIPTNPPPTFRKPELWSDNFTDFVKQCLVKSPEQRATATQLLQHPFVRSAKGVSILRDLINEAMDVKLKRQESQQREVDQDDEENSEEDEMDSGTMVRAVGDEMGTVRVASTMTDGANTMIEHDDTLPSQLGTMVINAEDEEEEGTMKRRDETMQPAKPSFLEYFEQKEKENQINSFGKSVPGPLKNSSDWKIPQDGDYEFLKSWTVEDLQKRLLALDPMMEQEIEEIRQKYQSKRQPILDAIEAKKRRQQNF
Sequence of ULK3 (human) (Q6PHR2 whole entry, looked up): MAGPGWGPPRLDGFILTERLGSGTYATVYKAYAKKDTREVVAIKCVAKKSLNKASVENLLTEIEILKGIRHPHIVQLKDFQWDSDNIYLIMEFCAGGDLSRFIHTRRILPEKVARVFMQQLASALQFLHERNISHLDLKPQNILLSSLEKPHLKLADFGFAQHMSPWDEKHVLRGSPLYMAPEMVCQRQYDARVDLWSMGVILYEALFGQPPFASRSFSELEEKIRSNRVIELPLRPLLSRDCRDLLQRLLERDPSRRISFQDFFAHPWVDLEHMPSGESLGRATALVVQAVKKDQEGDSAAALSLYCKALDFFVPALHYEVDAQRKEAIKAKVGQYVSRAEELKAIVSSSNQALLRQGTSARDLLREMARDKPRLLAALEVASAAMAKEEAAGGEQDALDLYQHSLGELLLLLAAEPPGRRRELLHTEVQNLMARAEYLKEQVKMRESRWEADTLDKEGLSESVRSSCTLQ
Sequence of CDK4 CCND1 (human) (P11802 whole entry, looked up): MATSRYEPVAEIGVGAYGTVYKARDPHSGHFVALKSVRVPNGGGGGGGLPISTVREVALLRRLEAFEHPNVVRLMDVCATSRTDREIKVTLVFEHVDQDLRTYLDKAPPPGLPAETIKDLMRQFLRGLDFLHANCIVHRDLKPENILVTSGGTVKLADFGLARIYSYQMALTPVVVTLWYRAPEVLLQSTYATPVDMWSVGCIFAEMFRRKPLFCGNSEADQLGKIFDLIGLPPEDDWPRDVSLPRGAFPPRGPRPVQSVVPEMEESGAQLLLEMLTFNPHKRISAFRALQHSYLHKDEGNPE
Sequence of CDK4 CCND1 (human) (P24385 whole entry, looked up): as the sequence (P24385 whole entry, looked up) above

Structure (SMILES): c1ccc(-c2n[nH]cc2-c2ccnc3ccccc23)nc1
residual activity [1]: 101% | residual activity [2]: 98.7% | residual activity [3]: 98.4% | residual activity [4]: 90.8% | residual activity [5]: 89.2% | residual activity [6]: 112% | residual activity [7]: 100% and 87.8% | residual activity [8]: 107% | residual activity [9]: 98.5% | residual activity [10]: 76.9% | residual activity [11]: 100% | residual activity [12]: 101% | residual activity [13]: 97% | residual activity [14]: 88.7% | residual activity [15]: 53.9% | residual activity [16]: 98% | residual activity [17]: 92.7% | residual activity [18]: 91.1% | residual activity [19]: 92.8% | residual activity [20]: 111% | residual activity [21]: 94.6% | residual activity [22]: 82.6% | residual activity [23]: 101% | residual activity [24]: 78% | residual activity [25]: 117% | residual activity [26]: 83.4% | residual activity [27]: 101% | residual activity [28]: 98.7% | residual activity [29]: 96.1% | residual activity [30]: 103% | residual activity [31]: 99% | residual activity [32]: 89.1% | residual activity [33]: 93.7% | residual activity [34]: 103% | residual activity [35]: 97.2% | residual activity [36]: 104% | residual activity [37]: 87.7% | residual activity [38]: 85.3% | residual activity [39]: 105% | residual activity [40]: 106% | residual activity [41]: 88.9%

Structure (SMILES): Nc1ncnc2[nH]nc(Nc3ccc(F)cc3)c12
residual activity [1]: 90.4% | residual activity [2]: 88.7% | residual activity [3]: 104% | residual activity [4]: 87.7% | residual activity [5]: 97% | residual activity [6]: 71.7% | residual activity [7]: 89.7% and 90.3% | residual activity [8]: 95.5% | residual activity [9]: 90.7% | residual activity [10]: 104% | residual activity [11]: 93.3% | residual activity [12]: 90.3% | residual activity [13]: 83.6% | residual activity [14]: 88.5% | residual activity [15]: 80.5% | residual activity [16]: 90.1% | residual activity [17]: 81.5% | residual activity [18]: 96.6% | residual activity [19]: 90% | residual activity [20]: 100% | residual activity [21]: 94% | residual activity [22]: 97.1% | residual activity [23]: 89.8% | residual activity [24]: 88% | residual activity [25]: 96% | residual activity [26]: 91% | residual activity [27]: 98.6% | residual activity [28]: 92.4% | residual activity [29]: 101% | residual activity [30]: 88.9% | residual activity [31]: 91.3% | residual activity [32]: 67.6% | residual activity [33]: 89.6% | residual activity [34]: 89.9% | residual activity [35]: 97.1% | residual activity [36]: 82.3% | residual activity [37]: 88.3% | residual activity [38]: 92.8% | residual activity [39]: 104% | residual activity [40]: 90.7% | residual activity [41]: 91.5%

Structure (SMILES): CCN(CC)CCNC(=O)c1c(C)[nH]c(/C=C2\C(=O)Nc3ccc(Cl)cc32)c1C
residual activity [1]: 2.98% | residual activity [2]: 92.8% | residual activity [3]: 95.9% | residual activity [4]: 82.9% | residual activity [5]: 82.6% | residual activity [6]: 10.5% | residual activity [7]: 21.9% and 6.34% | residual activity [8]: 91.7% | residual activity [9]: 34.3% | residual activity [10]: 76.7% | residual activity [11]: 102% | residual activity [12]: 74.1% | residual activity [13]: 48% | residual activity [14]: 81.9% | residual activity [15]: 46.7% | residual activity [16]: 88% | residual activity [17]: 1.87% | residual activity [18]: 27.8% | residual activity [19]: 59.3% | residual activity [20]: 22.1% | residual activity [21]: 99.5% | residual activity [22]: 80.7% | residual activity [23]: 15.1% | residual activity [24]: 95.8% | residual activity [25]: 101% | residual activity [26]: 73.2% | residual activity [27]: 104% | residual activity [28]: 40.1% | residual activity [29]: 30.5% | residual activity [30]: 8.07% | residual activity [31]: 91.9% | residual activity [32]: 79.5% | residual activity [33]: 1.44% | residual activity [34]: 93.5% | residual activity [35]: 93.7% | residual activity [36]: 58.3% | residual activity [37]: 22.7% | residual activity [38]: 21.6% | residual activity [39]: 102% | residual activity [40]: 109% | residual activity [41]: 92.8%

Structure (SMILES): O=C1NC(=O)C(c2cn(CCCn3ccnc3)c3ccccc23)=C1Nc1ccccc1
residual activity [1]: 40.9% | residual activity [2]: 83.4% | residual activity [3]: 99.5% | residual activity [4]: 95.8% | residual activity [5]: 80.3% | residual activity [6]: 2% | residual activity [7]: 103% and 96.4% | residual activity [8]: 79.1% | residual activity [9]: 97.9% | residual activity [10]: 97.8% | residual activity [11]: 101% | residual activity [12]: 99.1% | residual activity [13]: 51.3% | residual activity [14]: 99.2% | residual activity [15]: 96.7% | residual activity [16]: 111% | residual activity [17]: 40% | residual activity [18]: 83.1% | residual activity [19]: 107% | residual activity [20]: 103% | residual activity [21]: 104% | residual activity [22]: 89.9% | residual activity [23]: 3.85% | residual activity [24]: 104% | residual activity [25]: 51.6% | residual activity [26]: 22.2% | residual activity [27]: 97.1% | residual activity [28]: 64.6% | residual activity [29]: 93.3% | residual activity [30]: 85.7% | residual activity [31]: 90.7% | residual activity [32]: 95.3% | residual activity [33]: 43.6% | residual activity [34]: 101% | residual activity [35]: 96.2% | residual activity [36]: 105% | residual activity [37]: 89.5% | residual activity [38]: 84.7% | residual activity [39]: 103% | residual activity [40]: 84.9% | residual activity [41]: 92.5%

residual activity [1]: 77.8% | residual activity [2]: 104% | residual activity [3]: 105% | residual activity [4]: 94.6% | residual activity [5]: 114% | residual activity [6]: 96.6% | residual activity [7]: 3.49% and 5.13% | residual activity [8]: 92.4% | residual activity [9]: 2.18% | residual activity [10]: 101% | residual activity [11]: 103% | residual activity [12]: 121% | residual activity [13]: 86.3% | residual activity [14]: 84.8% | residual activity [15]: 22.3% | residual activity [16]: 87.5% | residual activity [17]: 67.9% | residual activity [18]: 98.2% | residual activity [19]: 6.25% | residual activity [20]: 94.9% | residual activity [21]: 95.2% | residual activity [22]: 101% | residual activity [23]: 96.9% | residual activity [24]: 70.3% | residual activity [25]: 96.1% | residual activity [26]: 95.2% | residual activity [27]: 97.8% | residual activity [28]: 104% | residual activity [29]: 96.7% | residual activity [30]: 89.4% | residual activity [31]: 103% | residual activity [32]: 17.3% | residual activity [33]: 86.2% | residual activity [34]: 100% | residual activity [35]: 93.4% | residual activity [36]: 4.56% | residual activity [37]: 98.5% | residual activity [38]: 102% | residual activity [39]: 14.2% | residual activity [40]: 110% | residual activity [41]: 95.7%
Structure (SMILES): Nc1ncnc2c1c(-c1ccc(Oc3ccccc3)cc1)cn2C1CCCC1
